“Also recorded” adds a separate entry of the source.
What was measured:
Assay type in all cases: cell-based, human
VTA-like spheroids [1] = experiment: FLIPR calcium activity with Cal6 dye, control compounds / DAMGO (Example 3); settings: VTA-like spheroids; recordings 1-, 30-, 60-min after treatment
Method: (§1) Viruses and dyes: To assess calcium activity, the calcium dye, Cal6 (Molecular Devices), and genetically encoded calcium indicator, GCaMP6f (Addgene, cat #100836-AAV9) were used. Cal6 was used according to manufacturer's instructions and 10 mL of maintenance media was added to each vial. Two hours before activity was recorded, half of the spheroid media was exchanged for media with Cal6. The plates were covered in foil and placed in the incubator at 37° C. during the 2-hour (hr) incubation period. Since all viruses used were adeno-associated viruses (AAV), they were added to the media on day 7 to allow for 2-weeks expression prior to recording or testing. All viruses were added to the media at 2e5 multiplicity of infection (MOI). GCaMP6f infection occurred via an adeno-associated virus serotype 9 (AAV9) expressed under the CAG promoter for expression in both neurons and astrocytes. Designer receptors exclusively activated by designer drugs (DREADDs) viruses were used to stimulate and inhibit neuronal activity within spheroids. Both viruses were retrograde AAVs expressed under the human Synapsin promoter for expression in neurons and fused with an mCherry fluorophore. The DREADDs viruses either inserted the designer receptor hM4D(Gi), an inhibitory G-protein coupled receptor, or hM3D(Gq), a stimulatory G-protein coupled receptor. Clozapine-N-oxide (CNO, Tocris cat #4936) was suspended in dimethyl sulfoxide (DMSO) and used as the designer drug to activate the DREADDs viruses. CNO was tested at 1 and 10 μM, with data reported from the 1 μM concentration.
(§2) Fluorescent Imaging plate Reader (FLIPR): The FLIPR Penta (Molecular Devices) was used to assess calcium fluorescence across the 384-well plate simultaneously and to observe changes after treatment with compounds. The evening before calcium activity was measured, plates were sealed with parafilm and centrifuged at 1485×g for 2-min to get spheroids to the bottom of the well in a centered position. On the day of recording, the plate used for recording was placed in the read plate position inside of the FLIPR following the 2-hour Cal6 incubation at 37° C. Standard filter sets were used for Cal6 imaging with excitation set at 470-495 and emission at 515-575 nm. Fluorescent image reads were taken every 0.6 seconds for all plates, with exposure time of 0.03 and 50% excitation intensity. Recordings from the initial seven plates consisted of 1000 reads and were 10-min recordings with 2.5 gain, while the final two plates consisted of 500 reads (5-min recordings) with a gain of 2. Baseline recordings were taken across all plates and, if applicable, more recordings were obtained 1-, 30-, 60-, and/or 90-min after compound treatment. In between recordings, plates were wrapped in foil and placed back in the incubator at 37° C.
DAMGO was reconstituted in water at a 1 mM concentration and diluted in media to 20 µM such that spheroids would be treated with a final concentration of 10 μM after the half media exchange. Two aspects of OUD were modeled, chronic treatment along with opioid withdrawal. […]
384 Pin Tool: A 384 well pin tool (Rexroth) was used to transfer compounds simultaneously to the spheroid plate. […] Compound transfer via the 384 well pin tool occurred after the baseline recordings with the fluorescent imaging plate reader (FLIPR). […]

PFC-like spheroids [2] = experiment: FLIPR calcium activity with Cal6 dye, control compounds / DAMGO / AD compounds (Example 3); settings: PFC-like spheroids; recordings 1-, 30-, 60-min after treatment
Method: as §1, §2
DAMGO was reconstituted in water at a 1 mM concentration and diluted in media to 20 µM such that spheroids would be treated with a final concentration of 10 μM after the half media exchange. Two aspects of OUD were modeled, chronic treatment along with opioid withdrawal. For spheroids subjected to chronic DAMGO treatment, 20 μM DAMGO in maintenance media was added via half media exchange beginning on day 10, with treatments occurring every other day for 10 days, giving a total of five treatments.
(§3) 384 Pin Tool: A 384 well pin tool (Rexroth) was used to transfer compounds simultaneously to the spheroid plate. Prior to compound transfer, the pin tool went through four wash cycles where pins were rinsed with dimethyl sulfoxide (DMSO), followed by methanol, then deionized (DI) water, to ensure the pins were clean. Compound transfer via the 384 well pin tool occurred after the baseline recordings with the fluorescent imaging plate reader (FLIPR). Here, 60 nL of compound suspended in DMSO was transferred to 60 µL of media in each well, diluting the compounds by 1000-fold and giving a final DMSO concentration of 0.1%.

VTA-like spheroids [3] = experiment: FLIPR calcium activity profiling, compound addition (Examples 1-2); settings: FLIPR recordings 1-, 30-, 70-min after compound (t1, t30, t70)
Method: (§4) To examine neuronal activity changes as a response to compound treatment, calcium activity was assessed using a Fluorescent Imaging Plate Reader (FLIPR) Penta (Molecular Devices). FLIPR Calcium 6 Assay kits were purchased from Molecular Devices (PN: R8190). On day of activity profiling, 96-well or 384-well ULA round bottom (black sides, clear bottom) plates containing spheroids were removed from incubator. Fresh FLIPR Calcium 6 dye was prepared by diluting each vial in 10 ml of freshly prepared, phenol-free complete spheroid maturation media and vortexed for 2 minutes. Half of the media was removed from each well (45 μl from 384-well plate wells, 100 ul from 96-well plate wells) and replaced with equal amounts freshly prepared FLIPR Calcium 6 dye, followed by a 2-hour incubation in the dark in a 37 C, 5% CO2 incubator. After 2-hours, plates were removed and kept at room temperature for 10 minutes, then imaged and calcium activity read using the Molecular Devices FLIPR Penta High-Throughput Cellular Screening System. The FLIPR incubator stage was pre-warmed to 37° C. approximately 30 minutes prior to imaging. Standard filter sets were used for Cal6 imaging (excitation 470-495 and emission 515-575 nm). FLIPR recordings were obtained with the camera in normal mode, and settings included: gain was set to 2.5, exposure time to 0.03 seconds, and excitation intensity to 50%. Fluorescent image reads were taken every 0.6 seconds for a total of 1000 reads over a total run time of 10 minutes. Four recordings total were captured: baseline activity, 1-min after compound treatment, 30- and 70-min after compound treatment.
(§5) After baseline activity, cell plates were removed from the FLIPR and transferred to a 384-well pin tool instrument. Prior to compound addition, the pin tool was subjected to 4 wash cycles exposing the pins to water, methanol, and DMSO each time. Compounds, including either “QC compounds” (compounds with known mechanism of action, listed in results) or the mu opioid receptor selective-agonist DAMGO, were transferred from a compound source plate to the 384-well spheroid plate. Immediately after compound transfer, the cell plate was placed back in the FLIPR for the recording that was 1-min after compound transfer to begin. After this 10-min recording, another recording was captured 30-min after compounds were transferred. After the 30-min recording, the plate was again removed from the FLIPR and transferred to the pin tool instrument. During this phase of compound transfer, naloxone was transferred to wells that received DAMGO during the first compound transfer. Following this second compound transfer, the cell plate was placed back in the FLIPR and a final recording was obtained 30-min later, and 70-min after the initial compound transfer.
(§6) The FLIPR software ScreenWorks PeakPro 2.0 was used for the initial analysis of calcium activity using automated peak detection settings. With these settings, average peak statistics over each 10-min recording for each well were exported from PeakPro to Microsoft Excel. ScreenWorks Peak Pro 2.0 software was used to extract 17 activity features describing different aspects of calcium activity profiles. These included peak amplitude (PkA), peak amplitude standard deviation (PkASD), peak count (PkCt), peak rate (measured as peaks per minute, PpM), peak rate SD, peak spacing (PkSp), peak spacing SD (PkSpSD), peak spacing regularity, area under the curve (AUC), AUC SD, peak rise slope, peak rise slope SD, peak rise time (PkRt), peak ride time SD (PkRtSD), peak decay slope, peak decay slope SD, peak decay time (PkDt), and peak decay time SD (PkDtSD). To assess variability of these peak parameters, percent coefficients of variance (CV) were calculated by dividing the standard deviation/mean and multiplying by 100 for each designer spheroid type, and those with % CV's […] 20% were removed from future analysis. […]

PFC-like spheroids [4] = experiment: as above; settings: FLIPR recordings 1-, 30-, 70-min after compound (t1, t30, t70)
Method: as §4, §5, §6

[5] = system: single neuron spheroids expressing hM3Dq or hM4Di; experiment: Chemogenetic (DREADDs) activation with CNO, FLIPR calcium activity; settings: 1 uM CNO
Method: Viruses and dyes: To assess calcium activity, the calcium dye, Cal6 (Molecular Devices), and genetically encoded calcium indicator, GCaMP6f (Addgene, cat #100836-AAV9) were used. Cal6 was used according to manufacturer's instructions and 10 mL of maintenance media was added to each vial. Two hours before activity was recorded, half of the spheroid media was exchanged for media with Cal6. The plates were covered in foil and placed in the incubator at 37° C. during the 2-hour (hr) incubation period. Since all viruses used were adeno-associated viruses (AAV), they were added to the media on day 7 to allow for 2-weeks expression prior to recording or testing. […]
Fluorescent Imaging plate Reader (FLIPR): The FLIPR Penta (Molecular Devices) was used to assess calcium fluorescence across the 384-well plate simultaneously and to observe changes after treatment with compounds. The evening before calcium activity was measured, plates were sealed with parafilm and centrifuged at 1485×g for 2-min to get spheroids to the bottom of the well in a centered position. On the day of recording, the plate used for recording was placed in the read plate position inside of the FLIPR following the 2-hour Cal6 incubation at 37° C. […] Fluorescent image reads were taken every 0.6 seconds for all plates, with exposure time of 0.03 and 50% excitation intensity. […]

APOE4 PFC-like spheroids = experiment: Alzheimer's Disease model, FLIPR calcium activity after compound treatment; settings: 90 min after treatment, Memantine 10 μM, Donepezil 1 & 10 uM, EUK-134 1 & 10 μM
Method: as §2
as §3, with “Here, 60 nL of compound suspended in DMSO was transferred to 60 µL of media in each well, diluting the compounds by 1000-fold and giving a final DMSO concentration of 0.1%.” left out
Calcium Activity Analysis: Calcium oscillatory peak detection data from FLIPR recordings was obtained through ScreenWorks 5.1 (Molecular Devices). […] There, percent coefficient of variance (% CV) was calculated within each plate to measure how variable each parameter exported was. […]

Compound | functional response (calcium activity peak parameters) to control compound (VTA-like spheroids [1]) | functional response (calcium activity peak parameters) to control compound (PFC-like spheroids [2]) | effect on calcium activity peak parameters compared to DMSO controls (VTA-like spheroids [3]) | effect on calcium activity peak parameters compared to DMSO controls (PFC-like spheroids [4]) | effect of chemogenetic activation on peak parameters ([5]; spheroids with Dopa or Gluta composition expressing hM3Dq) | effect of chemogenetic inhibition on peak parameters ([5]; spheroids with Dopa or Gluta composition expressing hM4Di) | reversal of APOE4-induced deficits in peak count and spacing (APOE4 PFC-like spheroids)
NCc1cc(=O)[nH]o1 [Muscimol] | complete inhibition of activity that began immediately after treatment and persisted for at least 60-min | complete inhibition of activity that began immediately after treatment and persisted for at least 60-min | total inhibition of calcium activity that lasted throughout the entire recording period | total inhibition of calcium activity that lasted throughout the entire recording period |  |  | 
C[N+]1([O-])CCN(C2=Nc3cc(Cl)ccc3Nc3ccccc32)CC1 [CNO, Clozapine-N-oxide] |  |  |  |  | chemogenetic activation increased measures of peak frequency such as peak count and rate while reducing parameters such as peak spacing and peak width | the opposite was observed for these spheroids subjected to chemogenetic inhibition | 
COc1cc2c(cc1OC)C(=O)C(CC1CCN(Cc3ccccc3)CC1)C2 (stereo not drawn) [Donepezil] |  |  |  |  |  |  | reverse deficits caused by APOE4 GABA neurons; also recorded: restore deficits in peak count
CC12CC3CC(C)(C1)CC(N)(C3)C2 [Memantine] | increases in peak count and rate and decreases in peak amplitude | increases in peak count and rate and decreases in peak amplitude |  |  |  |  | reverse deficits caused by APOE4 GABA neurons; also recorded: restore deficits in peak count
CCN1CCCC1CNC(=O)c1cc(S(N)(=O)=O)ccc1OC (stereo not drawn) [Sulpiride] | no changes were observed in measures of peak frequency but increases in peak width and peak decay time were observed | increased peak count and rate while decreasing peak spacing | did not impact calcium activity, though there was a statistical trend toward significantly increasing PkCt 1-min after treatment | significantly increased PkCt and PpM while decreasing PkSp 70-min after treatment |  |  | 
COc1cccc(C=NCCN=Cc2cccc(OC)c2[O-])c1[O-].[Cl-].[Mn+3] [EUK-134] |  |  |  |  |  |  | reverse deficits caused by APOE4 GABA neurons; also recorded: restore deficits in peak count

From patent publication US20240141291A1, “FUNCTIONAL BRAIN REGION-SPECIFIC NEURAL SPHEROIDS AND METHODS OF USE” (THE UNITED STATES OF AMERICA, AS REPRESENTED BY THE …, priority 2021, published 2024)
